The source of these data is patent publication US5990083A, “Multicatalytic protease inhibitors” (Cephalon, Inc., priority 1997, dated 1999).

Assay [1] deals with processing of electroporated OVA by M12.B6 cells. Put plainly: Inhibition of MHC-I processing of electroporated OVA. Format: cell-based, mouse. The note with it: FIGS. 2 and 3, IL-2 secretion by T hybridoma cells. On the procedure: Compounds of the invention were assayed for the ability to inhibit the processing of exogenous OVA antigen by the class I major histocompatibility pathway (MHC-I). The MCP inhibitors were applied to a functional antigen processing system that allows inclusion of the inhibitor within the antigen processing cell during exposure to antigen, followed by fixation of the processing cell. T cell hybridomas are then added to the processing cells in the absence of inhibitor to determine the expression of peptide-MHC-I complexes, which reflects antigen processing prior to fixation.
Cells were grown at 37° C. in a humidified atmosphere maintained at 5% CO2 in a standard medium: DMEM (Gibco, St. Louis, Mo.) with 10% fetal calf serum (Hyclone, Logan Utah), 5×10^-5 M 2-mercaptoethanol, antibiotics and the following supplements: L-arginine HCl (116 mg/L), L-asparagine (36 mg/L), NaHCO3 (2 g/L), sodium pyruvate (1 mM). See also Harding, C. V., (1992) Eur. J. Immunol. 22: 1865-1869. […]
Electroporation was performed with a Gibco BEL Electroporator using 0.4 cm gap cuvette chambers. […] The extent of processing, (i.e., the level of specific peptide-MHC complexes expressed) was determined by the ability of the M12.B6 cells to stimulate IL-2 secretion by B3.1 or DOBW T hybridoma cells. […]

For assay [2], the system named is Ile113→Thr mutant SOD-1 in human 293 cells. The experiment in a line: SOD-1 levels in transiently transfected 293 cells (immunoblot). As to conditions: 5 μM, 24 hours, FIG. 5.
Description: The human kidney cell line designated 293 (human 293 cells or 293 cells)was obtained from the American Type Culture Collection (ATCC), 12301 Parklawn Drive, Rockville, Md., 20852 (ATCC #CRL 1573) and grown in Dulbecco's modified Eagle's medium with 4.6 g/L glucose, 10% heat-inactivated horse serum (Gibco/Life Technologies Inc. Gaithersburg, Md.). The human 293 cells were maintained at 37° C. in an atmosphere of 5% CO2. The 293 cells were transiently transfected using the calcium phosphate method (Chen, C. et al., Biotechniques 6: 632 (1988). The pCMV-113 SOD-1 expression vector was introduced into 293 cells and 24 hours later, the cells were incubated with either compound 34, compound 14, or compound 24, all at a concentration of 5 μM, for a duration of 24 hours. The known MCP and other protease inhibitory compounds were solubilized in dimethyl sulfoxide (DMSO). Other 293 cell cultures were incubated with an equal volume of DMSO or left in medium only as negative controls.
Approximately 48 hours prior to receiving test compounds, 5×10^5 293 cells were seeded in 36 mm dishes and maintained at 37° C. in an atmosphere of 5% CO2. Cells were incubated with MCP inhibitors (compound 34, 14 or 24) or with DMSO as a negative control for a duration of 24 hours. Cell lysates were prepared by lysing the cells in approximately 75 μl of phosphate-buffered saline (PBS) by freeze/thaw cycling. Protein concentrations of the cell lysates were determined using the BCA method (Pierce, Rockford, Ill.) and 2 to 2.5 μg of each sample was electrophoresed on a 4-20% polyacrylamide geol (Novex, San Diego, Calif.) using a Tris/glycine/SDS (25 mM Tris/192 mM glycine/0.1% SDS) buffer system. […] Stained bands corresponding to SOD-1 protein were quantitated using a DocuGel V image analysis system and RFLPscan software (Scanalytics, Billerica, Mass.). Levels of SOD-1 are expressed as units of induction relative to the negative control (i.e., units of experimental divided by units of control).
The test system of assay [3] is unweighting atrophy of the soleus muscle. The experiment in a line: Inhibition of unweighting atrophy of the soleus muscle in juvenile rats (muscle protein content). As to conditions: for Protein, End (day 3 of unweighting) / Effect (%), change in protein content during day 3 of unweighting: Table 2; for Protein, End (day 3 of unweighting): 24 hours after in situ soleus injection at day 2 of unweighting, mersalyl 200 nM aqueous; for Protein, End (day 3 of unweighting) / Protein, Treatment (unweighted muscle): MCP inhibitor 1 mM in DMSO; for Effect (%), change in protein content during day 3 of unweighting: End versus Start (estimated day 2 content); for Effect (%) on unweighted muscle protein / Protein, Treatment (unweighted muscle): Table 3; for Effect (%) on unweighted muscle protein: Treatment versus Vehicle contralateral muscle; for Protein, Treatment (unweighted muscle): treated soleus, contralateral muscle received vehicle, mersalyl 200 nM. Format: in vivo, rat. On the procedure: The effect of several inhibitors on the unweighting atrophy of the soleus muscle in juvenile rats was determined. See Tischler, M. E. (1990) Metabolism 39/7: 756-763 (hereinafter "Tischler--1990") for a general discussion of the procedure.
Juvenile female Sprague-Dawley rates (80-90 g) were tail-cast, hind limb suspended as in Jetspers, S. R. and Tischler, M. E., (1984) J. Appl. Physiol. 57: 1472-1479. The animal's hind limbs were elevated above the floor of the cage with each animal housed individually. Animals had free access to food and water, and were weighed at the time of suspension and at time of termination. During the suspension period the animals were checked daily to ensure that their toes were not touching the floor of the cage, and that there was no swelling of the tail due to the cast.
Each experiment began with the suspension of 20 rats which were randomly divided into 4 groups of 5 animals each. Group A was suspended for just 2 days and provided baseline data to approximate the soleus muscle size in other animals suspended for longer times. Average body weights for the groups at the outset of the study were compared and used as a correction factor for body size differences. […] See Tischler--1990. At 2 days after unweighting commenced, an aqueous solution of mersalyl (200 nM; 4 μl/100 g initial body wt) was injected into one soleus, as described previously. The contralateral muscle was injected with a similar volume of 0.9% saline ("Vehicle"). The animals were maintained under Innovar-vet (10 μl/100 g body wt) tranquilization during the in situ injection procedure. After the injections, the animals were suspended for an additional 24 hours and the soleus was removed. Groups C and D for each experiment were used for testing each of two different embodiments of the disclosed compounds.
Animals were treated as in group B, except that 1 mM MCP inhibitor, contained in dimethysulfoxide (DMSO), was injected into the soleus of one leg and DMSO only into the contralateral soleus. Thus each experiment consisted of two control groups and the testing of MCP inhibitors of the invention. The completion of five such experiments with different pairs of inhibitors provided for an "n" value of 10 for testing each MCP inhibitor and with each tested in two different shipments of animals.
After the animal was sacrificed, the soleus was excised, trimmed of fat and connective tissue, and carefully weighed. The muscle was then homogenized in 10% trichloroacetic acid (TCA) and the precipitated protein pelleted by centrifugation. The pellet was then washed once with 10% TCA and once with ethanol:ether (1:1). The final pellet was solubilized in 4 ml of 1N sodium hydroxide. The sample was then analyzed for protein content by the biuret procedure, using albumin as a standard.
The effect of MCP inhibitors on total muscle protein content was examined primarily by paired comparison with the untreated contralateral muscle. The ratio of contents was calculated and then analyzed statistically by analysis of variance ("ANOVA"). The left leg was always the treated leg so that the protein content ratios could be compared to the non-treated control animals as well. In this way, a significant difference can be shown by comparing the protein content of the two legs, as well as the relative effectiveness of the tested MCP inhibitors. A paired student test was also performed for the effect of each separate treatment. The non-treated control data also provided an estimate of protein content of day 2. This allowed approximation of the protein changes over the 24 hours of treatment for each of the Groups B, C, and D.

Turning to `CC(C)C[C@@H](C=O)NC(=O)[C@H](CCCNC(=N)N[N+](=O)[O-])NC(=O)C(CCCCCCCCC#N)C1CCCC1` (stereo partly drawn) [Compound 14, 10-cyano-2-cyclopentyldecanoyl-N^g-nitro-L-arginyl-L-leucinal], the “Effect on MHC-1 OVA processing” value in assay [1] is “effectively inhibit OVA processing”. Also, the “SOD-1 levels compared to controls” value in assay [2] was “modestly elevated”. Also, in assay [3], the “Protein, End (day 3 of unweighting)” value is 6.4 mg/muscle; the “Effect (%), change in protein content during day 3 of unweighting” value is listed as 0%; the “Effect (%) on unweighted muscle protein” value turned out to be 7%; the “Protein, Treatment (unweighted muscle)” value was found to be 6.4 mg/muscle.
On to `COC(=O)CCCCCCCC(C(=O)N[C@@H](CCCNC(=N)NS(=O)(=O)c1c(C)c(C)c2c(c1C)CCC(C)(C)O2)C(=O)N[C@H](C=O)CC(C)C)C1CCCC1` (stereo partly drawn) [Compound 20, 9-Methoxycarbonyl-2-cyclopentyl-nonanoyl-N^g-(2,2,5,7,8-pentamethylchroman-6-sulfonyl)-L-arginyl-L-leucinal], for which the “Effect on MHC-1 OVA processing” value in assay [1] was “effectively inhibit OVA processing”. Also, in assay [3], the “Protein, End (day 3 of unweighting)” value is on record as 6.2 mg/muscle; the “Effect (%), change in protein content during day 3 of unweighting” value was -4%; the “Effect (%) on unweighted muscle protein” value was 5%; the “Protein, Treatment (unweighted muscle)” value stood at 6.2 mg/muscle.
